Data on 37 molecules can be found in US20140120083A1, “TREATMENT OF CANCERS USING PI3 KINASE ISOFORM MODULATORS” (INFINITY PHARMACEUTICALS, INC., priority 2012, published 2014).

Common to all, as to format: biochemical
Assay [1] addresses PI3K δ (Homo sapiens, UniProt O00329). The experiment in a line: In vitro IC50, PI3K δ. Also noted: purchased Upstate. The source says: (§1) An exemplary system is PI 3-Kinase (human) HTRF™ Assay from Upstate.
In assay [2] the target is PI3K β (Homo sapiens, UniProt P42338). The assay is described as follows: In vitro IC50, PI3K β.
Sequence of PI3K β (P42338 whole entry): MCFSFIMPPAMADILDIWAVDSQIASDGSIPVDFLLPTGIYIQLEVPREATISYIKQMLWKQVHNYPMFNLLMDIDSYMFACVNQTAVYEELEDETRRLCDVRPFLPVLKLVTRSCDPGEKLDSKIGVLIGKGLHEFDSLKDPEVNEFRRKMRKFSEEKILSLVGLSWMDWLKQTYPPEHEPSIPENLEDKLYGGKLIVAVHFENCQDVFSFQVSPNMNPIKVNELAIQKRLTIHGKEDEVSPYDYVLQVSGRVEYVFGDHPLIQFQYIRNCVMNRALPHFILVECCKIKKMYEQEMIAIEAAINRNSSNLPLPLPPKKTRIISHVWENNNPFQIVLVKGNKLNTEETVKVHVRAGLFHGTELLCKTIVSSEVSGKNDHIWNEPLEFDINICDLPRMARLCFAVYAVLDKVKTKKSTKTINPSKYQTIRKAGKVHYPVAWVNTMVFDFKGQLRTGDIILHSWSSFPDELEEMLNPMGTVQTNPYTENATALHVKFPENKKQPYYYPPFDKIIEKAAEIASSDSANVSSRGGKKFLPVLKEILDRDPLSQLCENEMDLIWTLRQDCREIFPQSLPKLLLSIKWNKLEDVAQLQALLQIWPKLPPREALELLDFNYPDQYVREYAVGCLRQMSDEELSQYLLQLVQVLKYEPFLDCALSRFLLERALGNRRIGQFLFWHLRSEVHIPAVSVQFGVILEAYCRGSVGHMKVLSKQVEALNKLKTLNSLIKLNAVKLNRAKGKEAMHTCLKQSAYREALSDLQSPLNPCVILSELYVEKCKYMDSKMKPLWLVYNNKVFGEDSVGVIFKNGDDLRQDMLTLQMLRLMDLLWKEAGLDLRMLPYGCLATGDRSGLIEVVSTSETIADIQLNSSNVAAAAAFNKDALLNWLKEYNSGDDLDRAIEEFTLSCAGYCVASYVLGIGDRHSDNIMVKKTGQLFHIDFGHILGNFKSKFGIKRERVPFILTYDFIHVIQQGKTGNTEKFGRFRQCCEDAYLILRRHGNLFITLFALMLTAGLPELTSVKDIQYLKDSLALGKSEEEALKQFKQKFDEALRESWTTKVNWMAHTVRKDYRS
From the text: as §1

In assay [3] the target is T1, PI3K γ (Homo sapiens, UniProt P48736).
T1 construct: purchased Sigma
T1 sequence (P48736 whole entry): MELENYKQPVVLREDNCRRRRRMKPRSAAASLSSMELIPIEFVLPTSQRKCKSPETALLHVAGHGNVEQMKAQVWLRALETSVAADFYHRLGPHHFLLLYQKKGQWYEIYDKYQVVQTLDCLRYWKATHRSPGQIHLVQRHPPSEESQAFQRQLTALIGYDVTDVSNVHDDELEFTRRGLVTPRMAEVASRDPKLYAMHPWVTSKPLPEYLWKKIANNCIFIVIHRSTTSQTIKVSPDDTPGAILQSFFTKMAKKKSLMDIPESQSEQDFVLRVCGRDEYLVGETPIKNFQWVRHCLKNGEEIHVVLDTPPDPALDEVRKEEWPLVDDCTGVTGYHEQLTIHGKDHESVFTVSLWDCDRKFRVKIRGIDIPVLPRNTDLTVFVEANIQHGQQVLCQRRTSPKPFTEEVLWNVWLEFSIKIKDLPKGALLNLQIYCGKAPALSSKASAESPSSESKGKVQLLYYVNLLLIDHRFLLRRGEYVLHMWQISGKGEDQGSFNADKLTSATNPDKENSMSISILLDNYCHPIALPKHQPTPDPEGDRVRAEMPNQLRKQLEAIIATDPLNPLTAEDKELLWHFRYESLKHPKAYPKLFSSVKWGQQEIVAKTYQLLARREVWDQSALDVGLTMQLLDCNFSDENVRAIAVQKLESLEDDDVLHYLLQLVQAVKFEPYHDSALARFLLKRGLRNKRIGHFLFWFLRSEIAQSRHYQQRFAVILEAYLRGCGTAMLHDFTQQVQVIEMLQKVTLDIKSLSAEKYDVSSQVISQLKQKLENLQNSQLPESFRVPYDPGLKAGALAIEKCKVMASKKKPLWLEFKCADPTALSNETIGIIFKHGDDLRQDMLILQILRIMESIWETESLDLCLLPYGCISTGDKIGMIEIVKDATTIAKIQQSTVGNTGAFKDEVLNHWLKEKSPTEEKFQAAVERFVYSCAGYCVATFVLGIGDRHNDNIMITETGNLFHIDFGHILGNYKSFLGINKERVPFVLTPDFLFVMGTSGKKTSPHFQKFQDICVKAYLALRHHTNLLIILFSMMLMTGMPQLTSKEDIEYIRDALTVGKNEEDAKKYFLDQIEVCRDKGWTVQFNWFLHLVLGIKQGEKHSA
The experiment in a line: In vitro IC50, PI3K γ.
From the text: as §1

Assay [4] addresses T2, PI3K α (Homo sapiens, UniProt P42336).
T2 construct: purchased Upstate
The assay is described as follows: In vitro IC50, PI3K α.
From the text: as §1

Sequence of PI3K δ (O00329 whole entry): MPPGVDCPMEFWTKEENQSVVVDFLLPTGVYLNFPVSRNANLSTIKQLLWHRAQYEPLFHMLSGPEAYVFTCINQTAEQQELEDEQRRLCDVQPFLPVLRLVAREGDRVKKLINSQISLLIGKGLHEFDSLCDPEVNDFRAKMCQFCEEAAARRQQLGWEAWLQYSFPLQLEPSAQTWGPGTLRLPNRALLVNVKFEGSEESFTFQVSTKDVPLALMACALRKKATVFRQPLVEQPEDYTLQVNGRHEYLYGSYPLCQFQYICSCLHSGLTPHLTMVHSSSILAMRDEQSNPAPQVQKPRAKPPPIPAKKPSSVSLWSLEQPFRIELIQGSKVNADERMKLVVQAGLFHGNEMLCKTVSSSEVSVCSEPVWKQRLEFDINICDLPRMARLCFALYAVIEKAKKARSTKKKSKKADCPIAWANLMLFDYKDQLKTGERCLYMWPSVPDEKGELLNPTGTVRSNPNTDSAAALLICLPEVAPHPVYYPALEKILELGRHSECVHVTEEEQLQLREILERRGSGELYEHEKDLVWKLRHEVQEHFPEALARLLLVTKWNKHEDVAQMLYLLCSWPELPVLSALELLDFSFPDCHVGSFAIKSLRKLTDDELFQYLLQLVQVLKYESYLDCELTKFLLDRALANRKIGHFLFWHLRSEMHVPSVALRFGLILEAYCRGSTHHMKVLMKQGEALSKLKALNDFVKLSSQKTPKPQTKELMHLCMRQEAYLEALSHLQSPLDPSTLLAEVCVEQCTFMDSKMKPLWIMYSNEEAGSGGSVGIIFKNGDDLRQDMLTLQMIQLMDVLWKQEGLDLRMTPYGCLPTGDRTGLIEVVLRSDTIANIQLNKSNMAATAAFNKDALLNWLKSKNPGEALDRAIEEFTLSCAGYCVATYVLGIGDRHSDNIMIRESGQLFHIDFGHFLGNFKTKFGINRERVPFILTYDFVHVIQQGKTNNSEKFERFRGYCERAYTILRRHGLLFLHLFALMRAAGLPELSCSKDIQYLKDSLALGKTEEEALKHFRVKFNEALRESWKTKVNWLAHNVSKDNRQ
Sequence of PI3K δ (P27986 whole entry partner): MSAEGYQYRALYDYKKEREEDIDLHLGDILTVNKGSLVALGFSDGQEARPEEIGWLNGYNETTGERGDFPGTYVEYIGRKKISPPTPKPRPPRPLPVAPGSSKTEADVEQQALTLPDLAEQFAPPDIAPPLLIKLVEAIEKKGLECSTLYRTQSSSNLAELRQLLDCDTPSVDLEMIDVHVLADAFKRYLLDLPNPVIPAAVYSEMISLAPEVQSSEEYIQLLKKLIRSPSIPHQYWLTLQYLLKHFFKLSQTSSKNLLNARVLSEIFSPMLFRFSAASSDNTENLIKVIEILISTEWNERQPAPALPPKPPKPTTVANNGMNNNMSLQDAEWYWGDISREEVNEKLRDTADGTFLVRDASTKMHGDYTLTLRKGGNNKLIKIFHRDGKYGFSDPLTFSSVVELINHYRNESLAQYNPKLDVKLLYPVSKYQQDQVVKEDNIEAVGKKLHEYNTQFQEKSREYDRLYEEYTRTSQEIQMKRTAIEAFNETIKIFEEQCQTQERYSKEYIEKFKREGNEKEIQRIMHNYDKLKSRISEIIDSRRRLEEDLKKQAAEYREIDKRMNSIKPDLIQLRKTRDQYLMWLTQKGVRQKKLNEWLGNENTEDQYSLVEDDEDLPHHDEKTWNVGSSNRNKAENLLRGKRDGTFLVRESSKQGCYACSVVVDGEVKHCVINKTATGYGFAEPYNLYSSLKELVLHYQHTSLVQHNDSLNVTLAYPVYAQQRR
T2 sequence (P42336 whole entry): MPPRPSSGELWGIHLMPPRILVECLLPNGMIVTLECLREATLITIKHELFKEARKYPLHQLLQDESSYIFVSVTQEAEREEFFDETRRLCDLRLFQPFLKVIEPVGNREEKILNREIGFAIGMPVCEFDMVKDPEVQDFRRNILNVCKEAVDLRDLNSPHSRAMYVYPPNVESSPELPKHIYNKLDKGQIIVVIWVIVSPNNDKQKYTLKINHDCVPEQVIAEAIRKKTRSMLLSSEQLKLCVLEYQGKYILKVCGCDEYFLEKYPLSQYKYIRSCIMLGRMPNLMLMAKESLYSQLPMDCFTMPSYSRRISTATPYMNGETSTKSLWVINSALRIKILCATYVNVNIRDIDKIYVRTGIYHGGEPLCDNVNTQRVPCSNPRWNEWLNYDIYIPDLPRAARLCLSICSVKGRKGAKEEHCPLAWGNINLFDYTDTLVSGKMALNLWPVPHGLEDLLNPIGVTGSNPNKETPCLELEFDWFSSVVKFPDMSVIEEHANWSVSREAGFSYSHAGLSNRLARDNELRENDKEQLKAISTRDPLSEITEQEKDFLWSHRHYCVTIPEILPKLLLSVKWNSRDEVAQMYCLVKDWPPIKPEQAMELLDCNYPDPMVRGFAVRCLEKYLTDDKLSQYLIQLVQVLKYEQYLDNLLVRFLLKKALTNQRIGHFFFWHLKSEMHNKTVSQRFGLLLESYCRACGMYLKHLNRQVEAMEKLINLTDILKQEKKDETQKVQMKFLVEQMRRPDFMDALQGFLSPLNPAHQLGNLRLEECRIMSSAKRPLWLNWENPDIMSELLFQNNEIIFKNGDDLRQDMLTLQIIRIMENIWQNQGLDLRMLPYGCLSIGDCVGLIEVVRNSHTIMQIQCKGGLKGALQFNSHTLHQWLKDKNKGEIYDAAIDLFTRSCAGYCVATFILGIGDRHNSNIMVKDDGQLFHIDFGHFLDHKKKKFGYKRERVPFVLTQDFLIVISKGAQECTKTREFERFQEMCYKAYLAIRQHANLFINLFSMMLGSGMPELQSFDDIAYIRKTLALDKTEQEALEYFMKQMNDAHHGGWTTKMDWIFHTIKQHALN
T2 sequence (P27986 whole entry partner): as the sequence (P27986 whole entry partner) above

In general, IC50 refers to the concentration that inhibits the measured activity by half. The low end stands for inhibition by little substance, the high end for a need for much substance. Regarding `Cc1cccc2cc(Cn3nc(Br)c4c(N)ncnc43)n(-c3ccccc3F)c(=O)c12` [Compound 35], the IC50 in assay [1] is under 1000 nM; in assay [2] it was over 10000 nM; in assay [3], under 10000 nM; in assay [4] it was over 10000 nM.

Regarding `Cc1cccc2cc(C(C)Nc3nc(O)ncc3N)n(-c3ccccc3)c(=O)c12` (stereo not shown) [Compound 321], the IC50 in assay [1], in assay [2], in assay [3] and in assay [4] was over 10000 nM each time.

For `CCc1ccccc1-n1c(Cn2nc(-c3cc(O)cc(F)c3)c3c(N)ncnc32)cc2cccc(C)c2c1=O` [Compound 89], the IC50 in assay [1] is under 100 nM; in assay [2], under 1000 nM; in assay [3] it was under 100 nM; in assay [4], under 10000 nM.

As for `Cc1cccc2cc(C(C)Nc3ncnc4[nH]cnc34)n(-c3ccc(F)cc3)c(=O)c12` (stereo not shown) [Compound 213], the IC50 in assay [1] was under 100 nM; in assay [2] it was under 1000 nM; in assay [3] it was under 100 nM; in assay [4], under 10000 nM.

In the case of `Cc1cccc2cc(Cn3nc(I)c4c(N)ncnc43)n(C(C)C)c(=O)c12` [Compound 60], the IC50 in assay [1] was under 100 nM; in assay [2] it was over 10000 nM; in assay [3], over 10000 nM; in assay [4] it was over 10000 nM.

For the molecule `Nc1ncnc2c1c(-c1cn[nH]c1)nn2Cc1cc2cccc(F)c2c(=O)n1-c1ccccc1F` [Compound 189], the IC50 in assay [1] is under 1000 nM; in assay [2] it was over 10000 nM; in assay [3] it was under 10000 nM; in assay [4], over 10000 nM.

On to `Cc1cccc2cc(Cn3nc(-c4ccc5sc(N)nc5c4)c4c(N)ncnc43)n(-c3ccccc3)c(=O)c12` [Compound 277], for which the IC50 in assay [1] is under 100 nM; in assay [2], under 1000 nM; in assay [3], under 100 nM; in assay [4], under 1000 nM.

`CC(Nc1ncnc2[nH]cnc12)c1cc2ccccc2c(=O)n1-c1ccccc1` (stereo not shown) [Compound 220]: the concentration for half-maximal inhibition (IC50) in assay [1] is under 100 nM; in assay [2], under 10000 nM; in assay [3], under 1000 nM; in assay [4] it was over 10000 nM.

As to `C=Cc1nn(Cc2cc3cccc(C)c3c(=O)n2-c2ccccc2F)c2ncnc(N)c12` [Compound 179], the half-inhibitory concentration (IC50) in assay [1] is under 1000 nM; in assay [2], over 10000 nM; in assay [3] it was under 10000 nM; in assay [4], over 10000 nM.

As for `Nc1ncnc2c1c(-c1cc(O)cc(F)c1)nn2Cc1cc2cccc(Cl)c2c(=O)n1C1CC1` [Compound 142], the IC50 in assay [1], in assay [2], in assay [3] and in assay [4] was under 100 nM throughout.

For the molecule `Cc1cccc2cc(Cn3nc(-c4cc(O)cc(F)c4)c4c(N)ncnc43)n(-c3ccccc3Cl)c(=O)c12` [Compound 97], the IC50 in assay [1] was under 100 nM; in assay [2], under 1000 nM; in assay [3], under 100 nM; in assay [4], under 10000 nM.

Regarding `Cc1cccc2cc([C@H](C)Nc3ncnc4[nH]cc(C(N)=O)c34)n(-c3ccccc3)c(=O)c12` [Compound 288], the IC50 in assay [1] was under 100 nM; in assay [2], under 100 nM; in assay [3], under 100 nM; in assay [4] it was under 1000 nM.

Regarding `Cc1ccccc1-n1c(Cn2nc(-c3ccc4nc(N)ccc4c3)c3c(N)ncnc32)cc2cccc(C)c2c1=O` [Compound 149], the IC50 in assay [1] is under 100 nM; in assay [2], under 10000 nM; in assay [3], under 100 nM; in assay [4], under 1000 nM.

In the case of `CC(=O)Nc1nc2ccc(-c3nn(Cc4cc5cccc(C)c5c(=O)n4-c4ccccc4C)c4ncnc(N)c34)cc2o1` [Compound 266], the concentration for half-maximal inhibition (IC50) in assay [1] was under 100 nM; in assay [2] it was over 10000 nM; in assay [3], under 100 nM; in assay [4], over 10000 nM.

Take `Cc1cccc2cc([C@H](C)Nc3cc(N)nc(N)n3)n(-c3ccccc3)c(=O)c12` [Compound 286]: the IC50 is under 1000 nM in assay [1], over 10000 nM in assay [2], under 1000 nM in assay [3] and over 10000 nM in assay [4].

Regarding `Cc1ccccc1-n1c(Cn2nc(-c3ccc(O)c(Cl)c3)c3c(N)ncnc32)cc2cccc(C)c2c1=O` [Compound 25], the half-inhibitory concentration (IC50) in assay [1] was under 100 nM; in assay [2], under 10000 nM; in assay [3], under 100 nM; in assay [4], over 10000 nM.

As to `Cc1ccccc1-n1c(Cn2nc(-c3ccc4nc(N)ncc4c3)c3c(N)ncnc32)cc2cccc(C)c2c1=O` [Compound 150], the IC50 in assay [1] is under 100 nM; in assay [2] it was under 1000 nM; in assay [3], under 100 nM; in assay [4] it was under 100 nM.

Take `Cc1ccccc1-n1c(Cn2nc(-c3ccc(Cl)c(O)c3)c3c(N)ncnc32)cc2ccccc2c1=O` [Compound 52]: the IC50 in assay [1] is under 100 nM; in assay [2], over 10000 nM; in assay [3] it was under 100 nM; in assay [4], over 10000 nM.

Take `Cc1cccc2cc(Cn3nc(-c4cccc(O)c4)c4c(N)ncnc43)n(-c3ccccc3O)c(=O)c12` [Compound 81]: the IC50 in assay [1] is under 100 nM; in assay [2], under 10000 nM; in assay [3] it was under 100 nM; in assay [4] it was over 10000 nM.

For `CCC(Nc1ncnc2[nH]cnc12)c1cc2cccc(C)c2c(=O)n1-c1ccccc1` (stereo not shown) [Compound 211], the concentration for half-maximal inhibition (IC50) in assay [1] was under 100 nM; in assay [2] it was under 10000 nM; in assay [3] it was under 100 nM; in assay [4] it was over 10000 nM.

Regarding `COc1cc(-c2nn(Cc3cc4cccc(C)c4c(=O)n3-c3ccccc3C)c3ncnc(N)c23)ccc1Cl` [Compound 21], the half-maximal inhibitory concentration (IC50) is under 1000 nM in assay [1], over 10000 nM in assay [2], under 100 nM in assay [3] and over 10000 nM in assay [4].

Turning to `Cc1ccccc1-n1c(Cn2nc(-c3ccn[nH]3)c3c(N)ncnc32)cc2cccc(C)c2c1=O` [Compound 182], the concentration for half-maximal inhibition (IC50) in assay [1] is under 1000 nM; in assay [2] it was over 10000 nM; in assay [3], under 100 nM; in assay [4] it was over 10000 nM.

As for `Cc1cccnc1-n1c(Cn2nc(C#C[C@@H](C)O)c3c(N)ncnc32)cc2cccc(C)c2c1=O` [Compound 69], the half-inhibitory concentration (IC50) is under 1000 nM in assay [1], over 10000 nM in assay [2], over 10000 nM in assay [3] and over 10000 nM in assay [4].

Take `Cc1cccc2cc([C@H](C)Nc3nc(N)nc4[nH]cnc34)n(-c3ccccc3)c(=O)c12` [Compound 323]: the half-maximal inhibitory concentration (IC50) in assay [1] is under 100 nM; in assay [2], under 100 nM; in assay [3], under 100 nM; in assay [4], under 1000 nM.

Regarding `Cc1ccccc1-n1c(Cn2nc(-c3ccc4nc(N)sc4c3)c3c(N)ncnc32)cc2cccc(C)c2c1=O` [Compound 145], the IC50 in assay [1] was under 100 nM; in assay [2], under 10000 nM; in assay [3] it was under 100 nM; in assay [4] it was under 1000 nM.

Regarding `Cc1cccc2cc(C(C)Nc3ncnc4[nH]cnc34)n(-c3c(F)cccc3F)c(=O)c12` (stereo not shown) [Compound 216], the IC50 is under 100 nM in assay [1], over 10000 nM in assay [2], under 1000 nM in assay [3] and over 10000 nM in assay [4].

Regarding `Cc1ccccc1-n1c(Cn2nc(CN3CCOCC3)c3c(N)ncnc32)cc2cccc(C)c2c1=O` [Compound 194], the half-inhibitory concentration (IC50) in assay [1] is under 10000 nM; in assay [2] it was over 10000 nM; in assay [3], over 10000 nM; in assay [4], over 10000 nM.

Take `Cc1cccc2cc([C@H](C)Nc3ncnc4[nH]cnc34)n(C3CCC3)c(=O)c12` [Compound 198]: the IC50 in assay [1] was under 100 nM; in assay [2], under 10000 nM; in assay [3] it was under 100 nM; in assay [4], under 10000 nM.

Take `Cc1cccc2cc([C@H](C)Nc3cc(N)nc(N)n3)n(C3CC3)c(=O)c12` [Compound 284]: the IC50 was under 10000 nM in assay [1], over 10000 nM in assay [2], under 10000 nM in assay [3] and over 10000 nM in assay [4].

Take `Cc1cccc2cc(Cn3nc(I)c4c(N)ncnc43)n(-c3ccccc3OCCN3CCOCC3)c(=O)c12` [Compound 103]: the half-maximal inhibitory concentration (IC50) is under 100 nM in assay [1], over 10000 nM in assay [2], under 1000 nM in assay [3] and over 10000 nM in assay [4].

Regarding `CCC(Nc1ncnc2[nH]cnc12)c1cc2cccc(C)c2c(=O)n1-c1ccccc1C` (stereo not shown) [Compound 202], the half-maximal inhibitory concentration (IC50) was under 100 nM in assay [1], under 10000 nM in assay [2], under 1000 nM in assay [3] and over 10000 nM in assay [4].

For `Cc1cccc2cc(Cn3nc(I)c4c(N)ncnc43)n(C3CC3)c(=O)c12` [Compound 86], the half-maximal inhibitory concentration (IC50) was under 100 nM in assay [1], under 10000 nM in assay [2], under 100 nM in assay [3] and under 10000 nM in assay [4].

With `Cc1cccc2cc(C(C)Nc3ncnc4[nH]cnc34)n(C3CCN(C)CC3)c(=O)c12` (stereo not shown) [Compound 227], the half-maximal inhibitory concentration (IC50) in assay [1] is under 100 nM; in assay [2] it was under 1000 nM; in assay [3], over 10000 nM; in assay [4], over 10000 nM.

Take `Cc1ccccc1-n1c(Cn2nc(/C=C3/SC(=O)NC3=O)c3c(N)ncnc32)cc2cccc(C)c2c1=O` [Compound 173]: the half-inhibitory concentration (IC50) was under 100 nM in assay [1], under 10000 nM in assay [2], under 100 nM in assay [3] and under 10000 nM in assay [4].

As to `Cc1ccccc1-n1c(Cn2nc(-c3cccc(Cl)c3)c3c(N)ncnc32)cc2cccc(C)c2c1=O` [Compound 39], the IC50 in assay [1] is under 10000 nM; in assay [2] it was over 10000 nM; in assay [3] it was under 1000 nM; in assay [4] it was over 10000 nM.

Take `Cc1cccc2cc(C(C)Nc3ncnc4[nH]cnc34)n(C(C)C)c(=O)c12` (stereo not shown) [Compound 209]: the half-maximal inhibitory concentration (IC50) is under 100 nM in assay [1], under 10000 nM in assay [2], under 1000 nM in assay [3] and under 10000 nM in assay [4].

As for `Cc1cccc2cc(Cn3nc(-c4cccc(O)c4)c4c(N)ncnc43)n(-c3ccccc3)c(=O)c12` [Compound 146], the half-inhibitory concentration (IC50) in assay [1] was under 100 nM; in assay [2] it was over 10000 nM; in assay [3], under 100 nM; in assay [4], over 10000 nM.
